{"source": "patent US11478471B2", "about": "“Methods and compositions for treating diabetes, metabolic syndrome and other conditions” (priority 2005, dated 2022)", "key": {"[1]": {"assay": "Toxicokinetics of racemic ketoconazole in another 28-day dog study (b)", "settings": "dogs; for Cmax / AUC(0-t) / concentration at 0 h / concentration at 1 h / concentration at 2 h / concentration at 4 h / concentration at 8 h / concentration at 12 h / Tmax: beagle, dog, plasma, po; for AUC(0-t): AUC(0-12), footnote: AUC data is for 0-24 h; for concentration at 0 h / concentration at 1 h / concentration at 2 h / concentration at 4 h / concentration at 8 h / concentration at 12 h: Drug concentration in plasma; for Tmax: Tmax Range", "text": "Two groups of three male and three female dogs per group were studied.\nToxicokinetic samples were collected on Day 1 and during Weeks 2 and 4. […] For the following Table: *Days of treatment."}, "rat hepatocytes": {"tested_on": "rat hepatocytes", "settings": "cultured rat hepatocytes, four hours exposure; cited from earlier work"}, "[2]": {"settings": "female, 10 mg/kg, study b, powder, 10 mg/kg oral, day 1, F"}, "[3]": {"settings": "female, 10 mg/kg, study b, powder, 10 mg/kg oral, day 28, F"}, "[4]": {"settings": "female, 40 mg/kg, study b, powder, 40 mg/kg oral, day 1, F"}, "[5]": {"settings": "female, 40 mg/kg, study b, powder, dose and days not printed in the row (40 mg/kg, day 28), F"}, "[6]": {"settings": "female, 40 mg/kg, study b, powder, 40 mg/kg oral, day 28, F"}, "[7]": {"settings": "male, 10 mg/kg, study b, powder, 10 mg/kg oral, day 1, M"}, "[8]": {"settings": "male, 10 mg/kg, study b, powder, 10 mg/kg oral, day 28, M"}, "[9]": {"settings": "male, 40 mg/kg, study b, powder, 40 mg/kg oral, day 1, M"}, "[10]": {"settings": "male, 40 mg/kg, study b, powder, dose and days not printed in the row (40 mg/kg, day 28), M"}, "[11]": {"settings": "male, 40 mg/kg, study b, powder, 40 mg/kg oral, day 28, M"}}, "note": "Entries after “also recorded” stand apart in the source; their conditions may differ.", "data": [{"smiles": "CC(=O)N1CCN(c2ccc(OCC3COC(Cn4ccnc4)(c4ccc(Cl)cc4Cl)O3)cc2)CC1", "note": "(racemic) [Racemic ketoconazole, 1-acetyl-4-[4-[[2-(2,4-dichlorophenyl)-2-[(1H-imidazol-1-yl)-methyl]-1,3-dioxolan-4-yl]methoxy]phenyl]piperazine]", "values": [{"measurement": "Cmax", "setting": "[1]; both, 10 mg/kg, 10 mg/kg, day 28", "value": "7520 to 9200", "unit": "ng/mL"}, {"measurement": "Cmax", "setting": "[1]; both, 40 mg/kg, 40 mg/kg, day 28", "value": "42800 to 46800", "unit": "ng/mL"}, {"measurement": "change of exposure (AUC, Cmax) with repeat dosing, day 28 vs day 1", "setting": "[1]; daily oral dosing for 28 days", "value": "AUC determined after a single dose was significantly reduced in comparison to the AUC determined after 28 daily doses; also recorded: significant increase between day 1 and day 28"}, {"measurement": "AUC(0-t)", "setting": "[1]; [2]", "value": 6730, "unit": "ng·h/mL"}, {"measurement": "AUC(0-t)", "setting": "[1]; [3]", "value": 33100, "unit": "ng·h/mL"}, {"measurement": "Cmax", "setting": "[1]; [2]", "value": 1580, "unit": "ng/mL"}, {"measurement": "Cmax", "setting": "[1]; [3]", "value": 7520, "unit": "ng/mL"}, {"measurement": "concentration at 0 h", "setting": "[1]; [2]", "value": "< 250", "unit": "ng/mL"}, {"measurement": "concentration at 1 h", "setting": "[1]; [2]", "value": 1300, "unit": "ng/mL"}, {"measurement": "concentration at 2 h", "setting": "[1]; [2]", "value": 1230, "unit": "ng/mL"}, {"measurement": "concentration at 4 h", "setting": "[1]; [2]", "value": 590, "unit": "ng/mL"}, {"measurement": "concentration at 8 h", "setting": "[1]; [2]", "value": "< 250", "unit": "ng/mL"}, {"measurement": "concentration at 12 h", "setting": "[1]; [2]", "value": "< 250", "unit": "ng/mL"}, {"measurement": "concentration at 0 h", "setting": "[1]; [3]", "value": "< 250", "unit": "ng/mL"}, {"measurement": "concentration at 1 h", "setting": "[1]; [3]", "value": 7280, "unit": "ng/mL"}, {"measurement": "concentration at 2 h", "setting": "[1]; [3]", "value": 7210, "unit": "ng/mL"}, {"measurement": "concentration at 4 h", "setting": "[1]; [3]", "value": 4390, "unit": "ng/mL"}, {"measurement": "concentration at 8 h", "setting": "[1]; [3]", "value": 850, "unit": "ng/mL"}, {"measurement": "concentration at 12 h", "setting": "[1]; [3]", "value": "< 250", "unit": "ng/mL"}, {"measurement": "Tmax", "setting": "[1]; [2]", "value": "1 to 8", "unit": "h"}, {"measurement": "Tmax", "setting": "[1]; [3]", "value": "1 to 2", "unit": "h"}, {"measurement": "AUC(0-t)", "setting": "[1]; [4]", "value": 42900, "unit": "ng·h/mL"}, {"measurement": "AUC(0-t)", "setting": "[1]; [5]", "value": 639000, "unit": "ng·h/mL"}, {"measurement": "Cmax", "setting": "[1]; [4]", "value": 6230, "unit": "ng/mL"}, {"measurement": "Cmax", "setting": "[1]; [5]", "value": 42800, "unit": "ng/mL"}, {"measurement": "concentration at 0 h", "setting": "[1]; [4]", "value": "< 250", "unit": "ng/mL"}, {"measurement": "concentration at 1 h", "setting": "[1]; [4]", "value": 5650, "unit": "ng/mL"}, {"measurement": "concentration at 2 h", "setting": "[1]; [4]", "value": 5760, "unit": "ng/mL"}, {"measurement": "concentration at 4 h", "setting": "[1]; [4]", "value": 3300, "unit": "ng/mL"}, {"measurement": "concentration at 8 h", "setting": "[1]; [4]", "value": 1840, "unit": "ng/mL"}, {"measurement": "concentration at 12 h", "setting": "[1]; [4]", "value": 1550, "unit": "ng/mL"}, {"measurement": "concentration at 0 h", "setting": "[1]; [6]", "value": 12800, "unit": "ng/mL"}, {"measurement": "concentration at 1 h", "setting": "[1]; [6]", "value": 12300, "unit": "ng/mL"}, {"measurement": "concentration at 2 h", "setting": "[1]; [6]", "value": 31600, "unit": "ng/mL"}, {"measurement": "concentration at 4 h", "setting": "[1]; [6]", "value": 38600, "unit": "ng/mL"}, {"measurement": "concentration at 8 h", "setting": "[1]; [6]", "value": 40400, "unit": "ng/mL"}, {"measurement": "concentration at 12 h", "setting": "[1]; [6]", "value": 29900, "unit": "ng/mL"}, {"measurement": "Tmax", "setting": "[1]; [4]", "value": "2 to 12", "unit": "h"}, {"measurement": "Tmax", "setting": "[1]; [5]", "value": "4 to 8", "unit": "h"}, {"measurement": "AUC(0-t)", "setting": "[1]; [7]", "value": 9010, "unit": "ng·h/mL"}, {"measurement": "AUC(0-t)", "setting": "[1]; [8]", "value": 44200, "unit": "ng·h/mL"}, {"measurement": "Cmax", "setting": "[1]; [7]", "value": 1430, "unit": "ng/mL"}, {"measurement": "Cmax", "setting": "[1]; [8]", "value": 9200, "unit": "ng/mL"}, {"measurement": "concentration at 0 h", "setting": "[1]; [7]", "value": "< 250", "unit": "ng/mL"}, {"measurement": "concentration at 1 h", "setting": "[1]; [7]", "value": 380, "unit": "ng/mL"}, {"measurement": "concentration at 2 h", "setting": "[1]; [7]", "value": 620, "unit": "ng/mL"}, {"measurement": "concentration at 4 h", "setting": "[1]; [7]", "value": 1180, "unit": "ng/mL"}, {"measurement": "concentration at 8 h", "setting": "[1]; [7]", "value": 330, "unit": "ng/mL"}, {"measurement": "concentration at 12 h", "setting": "[1]; [7]", "value": "< 250", "unit": "ng/mL"}, {"measurement": "concentration at 0 h", "setting": "[1]; [8]", "value": "< 250", "unit": "ng/mL"}, {"measurement": "concentration at 1 h", "setting": "[1]; [8]", "value": 7530, "unit": "ng/mL"}, {"measurement": "concentration at 2 h", "setting": "[1]; [8]", "value": 8630, "unit": "ng/mL"}, {"measurement": "concentration at 4 h", "setting": "[1]; [8]", "value": 6200, "unit": "ng/mL"}, {"measurement": "concentration at 8 h", "setting": "[1]; [8]", "value": 1440, "unit": "ng/mL"}, {"measurement": "concentration at 12 h", "setting": "[1]; [8]", "value": 430, "unit": "ng/mL"}, {"measurement": "Tmax", "setting": "[1]; [7]", "value": "2 to 4", "unit": "h"}, {"measurement": "Tmax", "setting": "[1]; [8]", "value": "1 to 2", "unit": "h"}, {"measurement": "AUC(0-t)", "setting": "[1]; [9]", "value": 180000, "unit": "ng·h/mL"}, {"measurement": "AUC(0-t)", "setting": "[1]; [10]", "value": 542000, "unit": "ng·h/mL"}, {"measurement": "Cmax", "setting": "[1]; [9]", "value": 23300, "unit": "ng/mL"}, {"measurement": "Cmax", "setting": "[1]; [10]", "value": 46800, "unit": "ng/mL"}, {"measurement": "concentration at 0 h", "setting": "[1]; [9]", "value": "< 250", "unit": "ng/mL"}, {"measurement": "concentration at 1 h", "setting": "[1]; [9]", "value": 10300, "unit": "ng/mL"}, {"measurement": "concentration at 2 h", "setting": "[1]; [9]", "value": 14600, "unit": "ng/mL"}, {"measurement": "concentration at 4 h", "setting": "[1]; [9]", "value": 23100, "unit": "ng/mL"}, {"measurement": "concentration at 8 h", "setting": "[1]; [9]", "value": 10100, "unit": "ng/mL"}, {"measurement": "concentration at 12 h", "setting": "[1]; [9]", "value": 6700, "unit": "ng/mL"}, {"measurement": "concentration at 0 h", "setting": "[1]; [11]", "value": 3970, "unit": "ng/mL"}, {"measurement": "concentration at 1 h", "setting": "[1]; [11]", "value": 11900, "unit": "ng/mL"}, {"measurement": "concentration at 2 h", "setting": "[1]; [11]", "value": 24600, "unit": "ng/mL"}, {"measurement": "concentration at 4 h", "setting": "[1]; [11]", "value": 32700, "unit": "ng/mL"}, {"measurement": "concentration at 8 h", "setting": "[1]; [11]", "value": 46800, "unit": "ng/mL"}, {"measurement": "concentration at 12 h", "setting": "[1]; [11]", "value": 28300, "unit": "ng/mL"}, {"measurement": "Tmax", "setting": "[1]; [9]", "value": "2 to 4", "unit": "h"}, {"measurement": "Tmax", "setting": "[1]; [10]", "value": 8, "unit": "h"}, {"measurement": "concentrations with no detectable effect on LDH release", "setting": "rat hepatocytes", "value": "below 75 microM"}]}]}
